{
  "source": "patent US8202902B2",
  "about": "“Bivalent SMAC mimetics and the uses thereof” (The Regents of the University of Michigan, priority 2006, dated 2012)",
  "tested_on": "cIAP-1 in cancer cell lines",
  "experiment": "Induction of cIAP-1 degradation in cancer cells",
  "format": "cell-based",
  "data": [
    {"smiles": "CN[C@@H](C)C(=O)N[C@H]1CCCC[C@H]2CC[C@@H](C(=O)N[C@@H](c3ccccc3)c3cn(CCCCc4ccc(CCCCn5cc([C@@H](NC(=O)[C@@H]6CC[C@@H]7CCCC[C@H](NC(=O)[C@H](C)NC)C(=O)N76)c6ccccc6)nn5)cc4)nn3)N2C1=O", "note": "[SH-164]", "values": [
      {"measurement": "cIAP-1 level", "setting": "1 nM for 60 min, sensitive cancer cell lines", "result": "reduced cIAP-1 markedly"},
      {"measurement": "cIAP-1 degradation", "setting": "100 nM, SK-OV-3 cell line (FIG. 28)", "result": "rapid cIAP-1 degradation"},
      {"measurement": "cIAP-1 level / degradation", "setting": "10-100 nM, sensitive cancer cell lines", "result": "undetectable levels"},
      {"measurement": "levels of XIAP protein", "setting": "MDA-MB-231 and SK-OV-3, 12-24 h time points", "result": "reduced"},
      {"measurement": "cIAP-1 degradation", "setting": "resistant cancer cell lines", "result": "rapid cIAP-1 degradation"}
    ]}
  ]
}
